This passage reports IC50 and melting point results from publication PMC11500008, “Novel quinazolin-4-one based derivatives bearing 1,2,3-triazole and glycoside moieties as potential cytotoxic agents through dual EGFR and VEGFR-2 inhibitory activity” (Scientific Reports, 2024).

Read-outs that look alike come from different tables or passages of the source.

The subject of one series is HepG-2 cell line. The experiment in a line: MTT cytotoxicity assay, HepG-2. In kind it is cell-based. The note with it: Homo sapiens, read-out: IC50 (mean±SD) HepG-2. The text has this: (§1) The recently incorporated quinazolinone-based targets 1–4, 6–13 underwent evaluation for their cytotoxic effects with in vitro employing MTT technique, according to the procedure that has been published[48]–[50], utilizing human fibroblast-derived BJ-1 normal cell line, and human cancer liver HepG-2, breast MCF-7, and colon HCT-116 cell lines. These cell lines were purchased from Karolinska Center, Department of Oncology and Pathology, Karolinska Institute and Hospital, Stockholm, Sweden, There were further details in the supplemental file.
(§2) The cell lines were obtained from Karolinska Center, Department of Oncology and Pathology, Karolinska Institute and Hospital, Stockholm, Sweden as follows: human liver HepG-2, breast MCF-7, and colorectal HCT-116 cancer cell lines and human fibroblast-derived BJ-1 normal cell line. Exponentially, cells were placed in 10^4 cells/ well for 24 h, and then add fresh medium which containing different concentration of the tested sample. Serial two-fold dilution of the tested sample were added using a multichannel pipette. Moreover, all cells were cultivated at 37 °C, 5% CO2 and 95% humidity. Also, incubation of control cells occurred at 37 °C. However, after incubation for 24 h different concentrations of sample (25, 12.5, 6.25 and 3.125 µM) were added and continued the incubation for 48 h, then, add the crystal violet solution 1% to each well for 0.5 h to examine viable cells. Rinse the wells using water until no stain. After that, add 30% glacial acetic acid to all wells with shaking plates on Microplate reader (TECAN, Inc.) to measure the absorbance, using a test wavelength of 490 nm. Besides, compare the treated samples with the control cell. The cytotoxicity was estimated by IC50 in (μM), the concentration that inhibits 50% of growth of cancer cell.
(Tetrazolium dyes change colour on reduction, which living cells bring about.)

The subject of a further series is HCT-116 cell line. The series is described as follows: MTT cytotoxicity assay, HCT-116. In kind it is cell-based. Conditions: Homo sapiens, read-out: IC50 (mean±SD) HCT-116.
Excerpt: as §1, §2

In a further series the test system is MCF-7 cell line. The experiment in a line: MTT cytotoxicity assay, MCF-7. In kind it is cell-based. The note with it: Homo sapiens, read-out: IC50 (mean±SD) MCF-7.
Excerpt: as §1, §2

The subject of another series is BJ-1 normal cell line. The series is described as follows: MTT cytotoxicity assay, normal BJ-1 fibroblasts (safety profile). Conditions: Homo sapiens, read-out: IC50 (mean±SD) BJ-1. In kind it is cell-based. On the procedure: […]. The safety profiles of all derivatives were assessed through cytotoxic evaluation using human fibroblast-derived BJ-1 normal cell lines. […].
as §1, §2

Another series has as its target VEGFR-2 (Homo sapiens, UniProt P35968). The series is described as follows: In vitro VEGFR-2 inhibition assay (ELISA). The note with it: read-out: IC50 (mean ± SD) VEGFR-2; average of three values. (ELISA stands for enzyme-linked immunosorbent assay.)
In the next series the target is EGFR (Homo sapiens, UniProt P00533). The experiment in a line: In vitro EGFR inhibition assay (Kinase-Glo luminescence). For orientation: In Kinase-Glo more light means more ATP remaining.
Where [1] appears, read: HepG2, HepG-2 liver cancer cells, 48 h incubation, mean of three values.
[2] abbreviates: HCT-116 colorectal cancer cells, 48 h incubation, mean of three values.
Where [3] appears, read: MCF7, MCF-7 breast cancer cells, 48 h incubation, mean of three values.
Setting [4] is: BJ-1 normal fibroblast-derived cells, 48 h incubation, mean of three values.

Sequence of EGFR (P00533 25-1210): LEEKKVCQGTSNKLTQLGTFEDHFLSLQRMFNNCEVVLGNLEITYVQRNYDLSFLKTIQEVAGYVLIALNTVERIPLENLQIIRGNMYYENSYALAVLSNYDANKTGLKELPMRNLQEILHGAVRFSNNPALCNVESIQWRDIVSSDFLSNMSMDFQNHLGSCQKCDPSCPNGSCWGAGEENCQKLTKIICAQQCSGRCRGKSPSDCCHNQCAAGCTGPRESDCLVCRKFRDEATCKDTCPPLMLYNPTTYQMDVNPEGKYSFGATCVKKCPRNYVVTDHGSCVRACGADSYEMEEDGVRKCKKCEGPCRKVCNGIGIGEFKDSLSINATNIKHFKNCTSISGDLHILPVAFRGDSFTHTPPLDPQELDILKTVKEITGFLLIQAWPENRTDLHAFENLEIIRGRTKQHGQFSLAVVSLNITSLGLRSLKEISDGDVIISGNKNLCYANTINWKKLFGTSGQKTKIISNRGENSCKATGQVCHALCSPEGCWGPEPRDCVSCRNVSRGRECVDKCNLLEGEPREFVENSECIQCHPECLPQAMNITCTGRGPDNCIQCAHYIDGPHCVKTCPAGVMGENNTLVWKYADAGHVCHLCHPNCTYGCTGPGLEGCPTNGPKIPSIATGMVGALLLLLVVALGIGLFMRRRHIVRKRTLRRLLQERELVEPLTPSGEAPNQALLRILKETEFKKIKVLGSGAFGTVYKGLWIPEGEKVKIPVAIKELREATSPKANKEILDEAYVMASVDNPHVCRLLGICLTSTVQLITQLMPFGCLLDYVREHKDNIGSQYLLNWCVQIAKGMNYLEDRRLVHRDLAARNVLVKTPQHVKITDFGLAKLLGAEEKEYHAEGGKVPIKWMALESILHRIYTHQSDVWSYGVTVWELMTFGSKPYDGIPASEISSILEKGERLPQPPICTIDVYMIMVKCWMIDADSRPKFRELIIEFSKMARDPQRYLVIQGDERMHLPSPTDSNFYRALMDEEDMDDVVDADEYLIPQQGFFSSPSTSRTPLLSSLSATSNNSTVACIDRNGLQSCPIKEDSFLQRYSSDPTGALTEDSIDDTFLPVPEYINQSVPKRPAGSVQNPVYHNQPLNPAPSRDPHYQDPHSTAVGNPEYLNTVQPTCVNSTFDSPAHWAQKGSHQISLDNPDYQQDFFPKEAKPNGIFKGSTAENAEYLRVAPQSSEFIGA
Sequence of VEGFR-2 (P35968 20-1356): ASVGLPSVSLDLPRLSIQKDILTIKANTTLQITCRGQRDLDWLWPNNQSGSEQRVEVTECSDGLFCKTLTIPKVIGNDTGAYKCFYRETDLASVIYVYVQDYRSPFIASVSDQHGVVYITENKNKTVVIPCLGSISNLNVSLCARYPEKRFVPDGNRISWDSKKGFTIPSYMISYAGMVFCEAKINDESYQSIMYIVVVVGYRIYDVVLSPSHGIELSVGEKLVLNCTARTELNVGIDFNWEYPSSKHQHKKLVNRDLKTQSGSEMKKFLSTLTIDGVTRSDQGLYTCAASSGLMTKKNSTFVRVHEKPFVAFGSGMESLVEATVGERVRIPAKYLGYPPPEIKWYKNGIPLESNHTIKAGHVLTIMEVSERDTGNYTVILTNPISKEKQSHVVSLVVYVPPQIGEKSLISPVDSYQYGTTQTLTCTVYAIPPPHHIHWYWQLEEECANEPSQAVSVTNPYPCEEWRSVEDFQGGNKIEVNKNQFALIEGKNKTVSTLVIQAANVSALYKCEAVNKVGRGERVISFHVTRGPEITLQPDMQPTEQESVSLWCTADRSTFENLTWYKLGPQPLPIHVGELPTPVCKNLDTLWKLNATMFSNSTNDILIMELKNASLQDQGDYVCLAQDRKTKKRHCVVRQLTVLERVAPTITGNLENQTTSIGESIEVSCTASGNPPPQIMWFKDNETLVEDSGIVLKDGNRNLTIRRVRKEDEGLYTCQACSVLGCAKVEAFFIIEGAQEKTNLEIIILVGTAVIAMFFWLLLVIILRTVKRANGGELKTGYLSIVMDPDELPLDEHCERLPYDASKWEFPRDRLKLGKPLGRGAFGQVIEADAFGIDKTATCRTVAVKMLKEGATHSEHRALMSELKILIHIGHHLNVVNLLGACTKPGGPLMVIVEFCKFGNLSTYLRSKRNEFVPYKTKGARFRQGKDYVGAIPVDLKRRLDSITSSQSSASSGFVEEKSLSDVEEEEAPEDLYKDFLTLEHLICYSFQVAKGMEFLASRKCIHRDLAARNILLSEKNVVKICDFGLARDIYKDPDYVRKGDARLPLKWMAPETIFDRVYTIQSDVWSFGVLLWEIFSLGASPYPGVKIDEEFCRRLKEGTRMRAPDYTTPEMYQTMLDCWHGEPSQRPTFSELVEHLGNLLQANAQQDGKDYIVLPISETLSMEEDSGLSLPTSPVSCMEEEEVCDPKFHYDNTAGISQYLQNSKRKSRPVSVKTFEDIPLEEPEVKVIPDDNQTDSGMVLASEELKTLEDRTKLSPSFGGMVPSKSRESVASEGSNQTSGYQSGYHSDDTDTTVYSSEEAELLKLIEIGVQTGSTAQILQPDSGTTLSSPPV

Usually IC50 stands for the concentration that gives 50% inhibition. For the molecule `O=c1c2ccccc2nc(S)n1-c1ccccc1` [Compound 1], the IC50 with HepG-2 cell line (setting [1]) is 21.9 ± 1.9 µM; in the series with HCT-116 cell line (setting [2]), 18.6 ± 1.5 µM; in the series with MCF-7 cell line (setting [3]), 16.1 ± 1.1 µM; with BJ-1 normal cell line (setting [4]), greater than 25 µM.

Regarding `Cn1c(S)nc2ccccc2c1=O` [Compound 2], the IC50 in the series on HepG-2 cell line (setting [1]) is 24.1 ± 3.1 µM; with HCT-116 cell line (setting [2]), 16.1 ± 1.3 µM; in the series on MCF-7 cell line (setting [3]), 14.9 ± 1.3 µM; with BJ-1 normal cell line (setting [4]), greater than 25 µM.

`C#CCSc1nc2ccccc2c(=O)n1-c1ccccc1` [Compound 3]: the IC50 was greater than 25 µM in the series with HepG-2 cell line (setting [1]), 14.8 ± 1.6 µM with HCT-116 cell line (setting [2]), 15.9 ± 1.3 µM in the series on MCF-7 cell line (setting [3]) and greater than 25 µM in the series with BJ-1 normal cell line (setting [4]).

In general, melting point refers to the temperature, or range, at which the solid turns liquid. `C#CCSc1nc2ccccc2c(=O)n1C` [Compound 4, 3-methyl-2-(prop-2-yn-1-ylthio)quinazolin-4(3 H)-one] registered a melting point of 163 to 165 °C. The IC50 with HepG-2 cell line (setting [1]) was found to be 21.9 ± 2.7 µM. For the same molecule, the IC50 in the series on HCT-116 cell line (setting [2]) turned out to be 13.5 ± 1.1 µM. The IC50 in the series on MCF-7 cell line (setting [3]) was 14.6 ± 1.1 µM. Also, in the series with BJ-1 normal cell line (setting [4]), the IC50 was greater than 25 µM.

On to `CC(=O)OC[C@H]1O[C@@H](n2cc(CSc3nc4ccccc4c(=O)n3C)nn2)[C@H](OC(C)=O)[C@@H](OC(C)=O)[C@H]1OC(C)=O` [Compound 7, 2-(((1-[2,3,4,6-Tetra-O-acetyl-β-D-galactopyranosyl]-1 H-1,2,3-triazol-4-yl)methyl)thio)-3-methylquinazolin-4(3 H)-one], for which the IC50 with HepG-2 cell line (setting [1]) is 21.5 ± 2.5 µM; in the series with HCT-116 cell line (setting [2]) it was 5.5 ± 0.1 µM; in the series with MCF-7 cell line (setting [3]) it was 17.3 ± 0.5 µM; at VEGFR-2, 36.33 ± 0.17 µM; with BJ-1 normal cell line (setting [4]), 22.9 ± 3.2 µM; on EGFR it was 17.94 ± 0.1 µM.

In the case of `O=c1c2ccccc2nc(SCc2cn([C@@H]3O[C@H](CO)[C@H](O)[C@H](O)[C@H]3O)nn2)n1-c1ccccc1` [Compound 10, 2-(((1-[β-D-Galactopyranosyl]-1 H-1,2,3-triazol-4-yl)methyl)thio)-3-phenylquinazolin-4(3 H)-one], the IC50 is 17.1 ± 1.1 µM in the series with HepG-2 cell line (setting [1]); 6.4 ± 0.4 µM with HCT-116 cell line (setting [2]); 8.1 ± 0.6 µM with MCF-7 cell line (setting [3]); 22.33 ± 0.1 µM at VEGFR-2; 23.5 ± 3.1 µM in the series on BJ-1 normal cell line (setting [4]); 16.75 ± 0.05 µM against EGFR.

For the molecule `Cn1c(SCc2cn([C@@H]3O[C@H](CO)[C@H](O)[C@H](O)[C@H]3O)nn2)nc2ccccc2c1=O` [Compound 11, 2-(((1-[β-D-Galactopyranosyl]-1 H-1,2,3-triazol-4-yl)methyl)thio)-3-methylquinazolin-4(3 H)-one], the IC50 is 17.8 ± 2.1 µM in the series with HepG-2 cell line (setting [1]); 5.9 ± 0.1 µM with HCT-116 cell line (setting [2]); 5.7 ± 0.2 µM in the series on MCF-7 cell line (setting [3]); 22.86 ± 0.13 µM on VEGFR-2; greater than 25 µM in the series on BJ-1 normal cell line (setting [4]); 0.35 ± 0.11 µM at EGFR.

`O=c1c2ccccc2nc(SCc2cn([C@@H]3OC[C@@H](O)[C@H](O)[C@H]3O)nn2)n1-c1ccccc1` [Compound 12, 2-(((1-[β-D-Xylopyranosyl]-1 H-1,2,3-triazol-4-yl)methyl)thio)-3-phenylquinazolin-4(3 H)-one]: the IC50 is 15.1 ± 1.9 µM in the series on HepG-2 cell line (setting [1]); 3 ± 0.3 µM with HCT-116 cell line (setting [2]); 6.9 ± 0.3 µM in the series on MCF-7 cell line (setting [3]); 13.63 ± 0.08 µM at VEGFR-2; 24.7 ± 2.4 µM in the series with BJ-1 normal cell line (setting [4]); 15.88 ± 0.14 µM against EGFR.

As for `COc1cccc2c1C(=O)c1c(O)c3c(c(O)c1C2=O)C[C@@](O)(C(=O)CO)C[C@@H]3O[C@H]1C[C@H](N)[C@H](O)[C@H](C)O1` [Doxorubicin, reference compound], the IC50 stood at 4.8 ± 0.5 µM with HepG-2 cell line (setting [1]), 6.5 ± 0.5 µM in the series on HCT-116 cell line (setting [2]), 5.6 ± 0.3 µM in the series with MCF-7 cell line (setting [3]) and 32.1 ± 3.1 µM in the series on BJ-1 normal cell line (setting [4]).

Consider `C#Cc1cccc(Nc2ncnc3cc(OCCOC)c(OCCOC)cc23)c1` [Erlotinib, reference compound], for which the IC50 amounted to 7.8 ± 0.2 µM in the series on HepG-2 cell line (HepG2, 48 h); 7.3 ± 0.2 µM in the series with HCT-116 cell line (HCT-116, 48 h); 4.3 ± 0.1 µM in the series with MCF-7 cell line (MCF7, 48 h); 58.3 ± 1.4 µM in the series with BJ-1 normal cell line (Fibroblast, 48 h).
